The record followed here is patent US7964635B2, “Amidoacetonitrile derivatives” (Novartis AG, priority 2003, dated 2011).

Molecules are shown by their SMILES.

One data set concerns Haemonchus contortus. In words: In-vivo test on Haemonchus contortus on Mongolian gerbils using peroral application. As to conditions: po, 72 h, worm count 3 days after treatment, read-out: Hc: efficacy, % reduction of the number of worms; for inhibition in vivo at 1 mg/kg: 1 mg/kg peroral; for inhibition in vivo at 10 mg/kg: 10 mg/kg peroral; for inhibition in vivo at 3.2 mg/kg: 3.2 mg/kg peroral. As for the experimental part:
(§1) 1. In-Vivo Test on Trichostrongylus colubriformis and Haemonchus contortus on Mongolian Gerbils (Meriones uncuiculatus) Using Peroral Application Six to eight week old Mongolian gerbils are infected through a stomach tube with ca. 2000 third instar larvae each of T. colubriformis and H. contortus. 6 days after infection, the gerbils are treated by peroral application with the test compounds, dissolved in a mixture of 2 parts DMSO and 1 part polyethylene glycol (PEG 400), in quantities of 100, 32 and 10-0.1 mg/kg. On day 9 (3 days after treatment), when most of the H. contortus that are still present are late 4th instar larvae and most of the T. colubriformis are immature adults, the gerbils are killed in order to count the worms. The efficacy is calculated as the % reduction of the number of worms in each gerbil, compared with the geometric average of number of worms from 6 infected and untreated gerbils. The following tables B1, B2 and B3 show a comparison of a series of the compounds of tables 1, 2 and 3 with structurally most closely related ones known from literature, proving the astounding efficacy increase in this test over the state of the art (Hc: Haemonchus contortus; Tc: Trichostrongylus colubriformis): […]

In data set [1] the test system is Trichostrongylus colubriformis. Description: In-vivo test on Trichostrongylus colubriformis on Mongolian gerbils using peroral application. The note with it: po, 72 h, worm count 3 days after treatment, read-out: Tc: efficacy, % reduction of the number of worms; for inhibition in vivo at 1 mg/kg: 1 mg/kg peroral; for inhibition in vivo at 10 mg/kg: 10 mg/kg peroral; for inhibition in vivo at 3.2 mg/kg: 3.2 mg/kg peroral. As for the experimental part:
as §1

Regarding `CC(C#N)(COc1ccc(C#N)cc1Cl)NC(=O)c1ccc(C(F)(F)F)cc1` (stereo not drawn) [No. 1.1, N-[1-cyano-1-methyl-2-(4-cyano-2-chlorophenoxy)-ethyl]-4-trifluoromethylbenzamide], the melting point fell in the range of 147 to 149 °C. In addition, in the data set on Haemonchus contortus, the inhibition in vivo at 1 mg/kg came out at 97%. Moreover, the inhibition in vivo at 1 mg/kg in data set [1] worked out at 87%.
Compound `CC(C#N)(COc1ccc(C#N)cc1C(F)(F)F)NC(=O)c1ccc(C(F)(F)F)cc1` (stereo not drawn) [No. 1.3, N-[1-cyano-1-methyl-2-(4-cyano-2-trifluoromethylphenoxy)-ethyl]-4-trifluoromethyl-benzamide] showed a melting point of 184 to 186 °C. Besides, the inhibition in vivo at 1 mg/kg in the data set with Haemonchus contortus was found to be 97%. Further, the inhibition in vivo at 1 mg/kg in data set [1] was 91%.
With `CC(C#N)(COc1cc(C#N)ccc1Cl)NC(=O)c1ccc(C(F)(F)F)cc1` (stereo not drawn) [No. 1.4, N-[1-cyano-1-methyl-2-(5-cyano-2-chlorophenoxy)-ethyl]-4-trifluoromethylbenzamide], the melting point was in the range of 147 to 149 °C. Moreover, in the data set with Haemonchus contortus, the inhibition in vivo at 1 mg/kg stood at 82%.
`CC(C#N)(COc1cc(C#N)ccc1C(F)(F)F)NC(=O)c1ccc(C(F)(F)F)cc1` (stereo not drawn) [No. 1.6, N-[1-cyano-1-methyl-2-(5-cyano-2-trifluoromethylphenoxy)-ethyl]-4-trifluoromethyl-benzamide] gave a melting point of 154 °C. Also, in the data set with Haemonchus contortus, the inhibition in vivo at 1 mg/kg stood at 97%. Also, in data set [1], the inhibition in vivo at 1 mg/kg came out at 87%.
Turning to `CC(C#N)(COc1ccccc1Cl)NC(=O)c1ccc(C(F)(F)F)cc1` (stereo not drawn) [No. 1.12, reference compound], the inhibition in vivo at 10 mg/kg in the data set with Haemonchus contortus stood at 82%; in data set [1], 98%.
As to `CC(C#N)(COc1ccc(Cl)cc1Cl)NC(=O)c1ccc(C(F)(F)F)cc1` (stereo not drawn) [No. 1.60, reference compound], the results for the inhibition in vivo at 3.2 mg/kg (with Haemonchus contortus; in data set [1]) were 29% and 31%, respectively.
`CC(C#N)(COc1ccccc1C(F)(F)F)NC(=O)c1ccc(OC(F)(F)F)cc1` (stereo not drawn) [No. 1.64, reference compound]: the figures for the inhibition in vivo at 1 mg/kg (in the data set with Haemonchus contortus; in data set [1]) were 28% and 55%, respectively.
Take `CC(C#N)(COc1cc(Cl)ccc1Cl)NC(=O)c1ccc(C(F)(F)F)cc1` (stereo not drawn) [No. 1.72, reference compound]: the inhibition in vivo at 10 mg/kg in the data set on Haemonchus contortus turned out to be 66%.
For `CC(C#N)(COc1cc(Cl)ccc1Cl)NC(=O)c1ccc(OC(F)(F)F)cc1` (stereo not drawn) [No. 1.124, reference compound], the inhibition in vivo at 10 mg/kg with Haemonchus contortus was found to be 84%; in data set [1] it was 99%.
As to `CC(C#N)(COc1ccccc1C(F)(F)F)NC(=O)c1ccc(C(F)(F)F)cc1` (stereo not drawn) [No. 1.264, reference compound], the inhibition in vivo at 3.2 mg/kg with Haemonchus contortus worked out at 57%; in data set [1], 76%.
As to `CC(C#N)(COc1ccc(C#N)cc1Cl)NC(=O)c1ccc(OC(F)(F)F)cc1` (stereo not drawn) [No. 2.1, N-[1-cyano-1-methyl-2-(4-cyano-2-chlorophenoxy)-ethyl]-4-trifluoromethoxybenzamide], the melting point was in the range of 60 to 62 °C. For the same compound, the inhibition in vivo at 3.2 mg/kg with Haemonchus contortus was found to be 100%. The inhibition in vivo at 3.2 mg/kg in data set [1] amounted to 100%.
As to `CC(C#N)(COc1ccc(C#N)cc1C(F)(F)F)NC(=O)c1ccc(OC(F)(F)F)cc1` (stereo not drawn) [No. 2.3, N-[1-cyano-1-methyl-2-(4-cyano-2-trifluoromethylphenoxy)-ethyl]-4-trifluoromethoxy-benzamide], the melting point fell in the range of 80 to 82 °C.
Turning to `CC(C#N)(COc1cc(C#N)ccc1Cl)NC(=O)c1ccc(OC(F)(F)F)cc1` (stereo not drawn) [No. 2.4, N-[1-cyano-1-methyl-2-(5-cyano-2-chlorophenoxy)-ethyl]-4-trifluoromethoxybenzamide], the melting point lay in the range of 132 to 134 °C. In addition, the inhibition in vivo at 1 mg/kg in the data set on Haemonchus contortus was 89%. The inhibition in vivo at 1 mg/kg in data set [1] was found to be 79%.
With `CC(C#N)(COc1cc(C#N)ccc1C(F)(F)F)NC(=O)c1ccc(OC(F)(F)F)cc1` (stereo not drawn) [No. 2.6, N-[1-cyano-1-methyl-2-(5-cyano-2-trifluoromethylphenoxy)-ethyl]-4-trifluoromethoxybenzamide], the inhibition in vivo at 1 mg/kg in the data set with Haemonchus contortus was 95%; in data set [1], 85%.
In the case of `CC(C#N)(COc1ccccc1C(F)(F)F)NC(=O)c1ccc(SC(F)(F)F)cc1` (stereo not drawn) [No. 2.14, reference compound], the inhibition in vivo at 3.2 mg/kg with Haemonchus contortus is 61%; in data set [1] it was 73%.
`CC(C#N)(COc1ccccc1C(F)(F)F)NC(=O)c1ccc(C(F)(F)F)cc1F` (stereo not drawn) [No. 2.19, reference compound]: the inhibition in vivo at 10 mg/kg is 25% in the data set on Haemonchus contortus and 0% in data set [1].
Regarding `CC(C#N)(COc1ccc(C#N)cc1Cl)NC(=O)c1ccc(SC(F)(F)F)cc1` (stereo not drawn) [No. 3.1, N-[1-cyano-1-methyl-2-(4-cyano-2-chlorophenoxy)-ethyl]-4-trifluoromethylsulfanylbenzamide], the melting point is 167 to 169 °C. Also, the inhibition in vivo at 1 mg/kg with Haemonchus contortus is 69%. Besides, the inhibition in vivo at 1 mg/kg in data set [1] came out at 93%.
For `CC(C#N)(COc1ccc(C#N)cc1C(F)(F)F)NC(=O)c1ccc(SC(F)(F)F)cc1` (stereo not drawn) [No. 3.7, N-[1-cyano-1-methyl-2-(4-cyano-2-trifluoromethylphenoxy)-ethyl]-4-trifluoromethylsulfanyl-benzamide] the same measures were 79 to 82 °C, 90% and 98%.
On to `CC(C#N)(COc1ccc(C#N)cc1C(F)(F)F)NC(=O)c1ccc([S+]([O-])C(F)(F)F)cc1` (stereo not drawn) [No. 3.8, N-[1-cyano-1-methyl-2-(4-cyano-2-trifluoromethylphenoxy)-ethyl]-4-trifluoromethylsulfinyl-benzamide], for which the inhibition in vivo at 1 mg/kg in the data set with Haemonchus contortus stood at 74%; in data set [1], 85%.
On the same counts, the results for `CC(C#N)(COc1ccc(C#N)cc1C(F)(F)F)NC(=O)c1ccc(S(=O)(=O)C(F)(F)F)cc1` (stereo not drawn) [No. 3.9, N-[1-cyano-1-methyl-2-(4-cyano-2-trifluoromethylphenoxy)-ethyl]-4-trifluoromethylsulfonyl-benzamide] are 77% and 87%.
On to `CC(C#N)(COc1cc(C#N)ccc1Cl)NC(=O)c1ccc(SC(F)(F)F)cc1` (stereo not drawn) [No. 3.10, N-[1-cyano-1-methyl-2-(5-cyano-2-chlorophenoxy)-ethyl]-4-trifluoromethylsulfanylbenzamide], for which the melting point lay in the range of 125 to 127 °C. Also, the inhibition in vivo at 1 mg/kg with Haemonchus contortus amounted to 100%. Moreover, the inhibition in vivo at 1 mg/kg in data set [1] was 100%.
For the compound `CC(C#N)(COc1cc(C#N)ccc1C(F)(F)F)NC(=O)c1ccc(SC(F)(F)F)cc1` (stereo not drawn) [No. 3.16, N-[1-cyano-1-methyl-2-(5-cyano-2-trifluoromethylphenoxy)-ethyl]-4-trifluoromethylsulfanyl-benzamide], the inhibition in vivo at 1 mg/kg (with Haemonchus contortus; in data set [1]) was 100% throughout.
For the compound `CC(C#N)(COc1cc(C#N)ccc1C(F)(F)F)NC(=O)c1ccc([S+]([O-])C(F)(F)F)cc1` (stereo not drawn) [No. 3.17, N-[1-cyano-1-methyl-2-(5-cyano-2-trifluoromethylphenoxy)-ethyl]-4-trifluoromethylsulfinyl-benzamide], the inhibition in vivo at 1 mg/kg (in the data set with Haemonchus contortus; in data set [1]) was 100% each time.
For the compound `CC(C#N)(COc1cc(C#N)ccc1C(F)(F)F)NC(=O)c1ccc(S(=O)(=O)C(F)(F)F)cc1` (stereo not drawn) [No. 3.18, N-[1-cyano-1-methyl-2-(5-cyano-2-trifluoromethylphenoxy)-ethyl]-4-trifluoromethylsulfonyl-benzamide], the inhibition in vivo at 1 mg/kg (in the data set on Haemonchus contortus; in data set [1]) was 100% in each case.
